Values quoted from earlier work as cited in US20080226719A1, “Combination of Rosiglitazone and Donepezil for Improvement of Cognitive Function” (priority 2005, published 2008).
Where two headings read alike, the source gives them in different places.

Assays:
[1] = test system: individuals with mild cognitive impairment; settings: cited from earlier work; for rate at which patients developed AD: mild cognitive impairment
patients with AD = settings: cited from earlier work

## COc1cc2c(cc1OC)C(=O)C(CC1CCN(Cc3ccccc3)CC1)C2 (centres unmarked) [donepezil]
[1]; carriers of one or two copies of an APOE4 allele, after three years
  risk of progressing to AD compared to placebo: reduced risk of progressing to AD
[1]; at three years, versus placebo
  rate at which patients developed AD: no separation between groups
[1]; first twelve months of administration
  rate at which patients developed AD: reduce the rate at which patients developed AD

## Nc1c2c(nc3ccccc13)CCCC2 [tacrine]
Patients with AD; APOE4 carriers with AD, after 30 weeks
  patients unchanged or worse: 60%
Patients with AD; non-APOE4 carriers with AD
  patients showing an improvement in cognitive function: 83%
